According to the NIST ThermoML archive (doi:10.1016/j.jct.2014.05.014):
± gives the expanded uncertainty stated by the source.

Test: refractive index (Na D-line) (dimensionless); cn = amount concentration of the nth substance listed, in mol/dm3
Conditions: 101.3 kPa, Liquid, Standard Abbe refractometry

CC(N)C(=O)[O-].[K+] (stereo not drawn) [potassium DL-alaninate] + O
refractive index
Conditions | 303.15 K | 308.15 K | 313.15 K | 318.15 K | 323.15 K | 328.15 K | 333.15 K | 338.15 K | 343.15 K
c1 = 0.526 | 1.3409 ± 0.00033 | 1.34021 ± 0.00033 | 1.33947 ± 0.00033 | 1.33867 ± 0.00033 | 1.33782 ± 0.00033 | 1.33692 ± 0.00033 | 1.33599 ± 0.00033 | 1.335 ± 0.00033 | 1.33402 ± 0.00033
c1 = 1.009 | 1.34955 ± 0.00037 | 1.3488 ± 0.00037 | 1.34802 ± 0.00037 | 1.3472 ± 0.00037 | 1.34634 ± 0.00037 | 1.34542 ± 0.00037 | 1.34446 ± 0.00037 | 1.34349 ± 0.00037 | 1.34248 ± 0.00037
c1 = 1.501 | 1.35822 ± 0.00042 | 1.35743 ± 0.00042 | 1.35661 ± 0.00042 | 1.35576 ± 0.00042 | 1.35486 ± 0.00042 | 1.35394 ± 0.00042 | 1.35299 ± 0.00042 | 1.352 ± 0.00042 | 1.35098 ± 0.00042
c1 = 2.005 | 1.36647 ± 0.00048 | 1.36566 ± 0.00048 | 1.36481 ± 0.00048 | 1.36391 ± 0.00047 | 1.363 ± 0.00047 | 1.36206 ± 0.00047 | 1.3611 ± 0.00047 | 1.3601 ± 0.00047 | 1.3591 ± 0.00047
c1 = 2.501 | 1.37461 ± 0.00055 | 1.37375 ± 0.00055 | 1.37285 ± 0.00054 | 1.37195 ± 0.00054 | 1.37103 ± 0.00054 | 1.37004 ± 0.00054 | 1.36904 ± 0.00054 | 1.36803 ± 0.00054 | 1.36701 ± 0.00054
c1 = 2.986 | 1.38281 ± 0.0006 | 1.38192 ± 0.0006 | 1.38098 ± 0.0006 | 1.38002 ± 0.0006 | 1.37908 ± 0.0006 | 1.37809 ± 0.0006 | 1.3771 ± 0.00059 | 1.3761 ± 0.00059 | 1.37507 ± 0.00059
c1 = 3.498 | 1.39058 ± 0.00065 | 1.38964 ± 0.00065 | 1.3887 ± 0.00065 | 1.38775 ± 0.00065 | 1.38677 ± 0.00065 | 1.38576 ± 0.00064 | 1.38471 ± 0.00064 | 1.38364 ± 0.00064 | 1.38259 ± 0.00064

CC(N)C(=O)[O-].[Na+] (stereo not drawn) [sodium DL-alaninate] + O
refractive index
Conditions | 303.15 K | 308.15 K | 313.15 K | 318.15 K | 323.15 K | 328.15 K | 333.15 K | 338.15 K | 343.15 K
c1 = 0.498 | 1.3409 ± 0.00033 | 1.34021 ± 0.00033 | 1.33945 ± 0.00033 | 1.33864 ± 0.00033 | 1.33778 ± 0.00033 | 1.33688 ± 0.00033 | 1.33592 ± 0.00033 | 1.3349 ± 0.00033 | 1.33388 ± 0.00033
c1 = 0.99 | 1.34952 ± 0.00037 | 1.34876 ± 0.00037 | 1.34796 ± 0.00037 | 1.34712 ± 0.00037 | 1.34624 ± 0.00037 | 1.34528 ± 0.00037 | 1.34432 ± 0.00037 | 1.34333 ± 0.00036 | 1.34232 ± 0.00036
c1 = 1.485 | 1.35799 ± 0.00042 | 1.35719 ± 0.00042 | 1.35636 ± 0.00041 | 1.35547 ± 0.00041 | 1.35455 ± 0.00041 | 1.35358 ± 0.00041 | 1.35259 ± 0.00041 | 1.35156 ± 0.00041 | 1.35053 ± 0.00041
c1 = 1.983 | 1.3663 ± 0.00047 | 1.36544 ± 0.00047 | 1.36454 ± 0.00047 | 1.36361 ± 0.00047 | 1.36264 ± 0.00047 | 1.36164 ± 0.00047 | 1.36061 ± 0.00047 | 1.35958 ± 0.00046 | 1.35853 ± 0.00046
c1 = 2.476 | 1.37433 ± 0.00053 | 1.37341 ± 0.00053 | 1.37246 ± 0.00053 | 1.37149 ± 0.00053 | 1.37049 ± 0.00052 | 1.36949 ± 0.00052 | 1.36845 ± 0.00052 | 1.36735 ± 0.00052 | 1.36627 ± 0.00052
c1 = 3.063 | 1.38382 ± 0.00061 | 1.38284 ± 0.00061 | 1.3818 ± 0.00061 | 1.38074 ± 0.0006 | 1.3797 ± 0.0006 | 1.37866 ± 0.0006 | 1.37755 ± 0.0006 | 1.37643 ± 0.0006 | 1.37534 ± 0.00059
